Legend:
SLE-PBMC = test: IFN-gamma release by pathogenic lupus cells (SLE-PBMC); assay type: cell-based, human; details: control, non-specific inflammatory stimulus
Excerpt: FIG. 32 is a bar graph depicting the amount of interferon (IFN)—gamma released by pathogenic lupus cells in the presence or absence of combinations of (1) activated Treg cells; (2) ruxolitinib; and/or (3) camptothecin. Rux=ruxolitinib. SLE-PBMC=peripheral blood mononuclear cells derived from subjects with systemic lupus erythematosus. D6=Day 6.

[1] = system: graft versus host disease (GVHD); details: mouse, in vivo
Method: FIG. 33 depicts a schematic for treatment of a xenogeneic mouse graft versus host disease (GVHD) model with a ruxolitinib and activated Treg cells regimen. PBMC=peripheral blood mononuclear cells.
A xenogeneic mouse graft versus host disease (GVHD) model was treated with a ruxolitinib and activated CB Treg cells regimen, as depicted in FIG. 33. NSG mice underwent sublethal irradiation on day −1 followed by injection of 1×10^7 donor peripheral blood (PB) mononuclear cells (MNCs) on day 0. Oral ruxolitinib at 1 mg daily was fed continuously to the mice in the presence or absence of 1×10^7 CB Treg cells, tagged with CellTrace™ Violet dye (ThermoFisher), administered on days +4, +7, +11, +18. Mice were followed every other day for weight, GVHD score and survival. Serial blood draws were performed to analyze for cell compartment and cytokine assays.

SMILES | IFNγ secretion from CB Treg cells (SLE-PBMC) | CB Treg persistence [1]
CC[C@@]1(O)C(=O)OCc2c1cc1n(c2=O)Cc2cc3ccccc3nc2-1 [Camptothecin] | does not increase | 
N#CC[C@H](C1CCCC1)n1cc(-c2ncnc3[nH]ccc23)cn1 [ruxolitinib] |  | improved CB Treg persistence

Reference: patent US12692478B2, “Populations of enriched regulatory T cells and methods for producing same” (Cellenkos Inc., priority 2021, dated 2026)
